Reference: US10144706B2 (BRISTOL-MYERS SQUIBB COMPANY, priority 2016, dated 2018)

Target: T1, PD-1/PD-L1 interaction (PD-1-Ig / PD-L1-His) (Homo sapiens, UniProt Q9NZQ7)
T1 construct: hPDL1(18-239)-TVMV-His; TVMV protease site linker (C); made in house; host or cells: HEK293T
Assay: PD-1/PD-L1 Homogenous Time-Resolved Fluorescence (HTRF) binding assay
Settings: IC50 range class; PD-L1-His 10 nM, PD-1-Ig 20 nM; read-out: Range or IC50
Excerpt: The ability of the compounds of formula (I) to bind to PD-L1 was investigated using a PD-1/PD-L1 Homogenous Time-Resolved Fluorescence (HTRF) binding assay.
Homogenous Time-Resolved Fluorescence (HTRF) Binding Assay.
The interaction of PD-1 and PD-L1 can be assessed using soluble, purified preparations of the extracellular domains of the two proteins. The PD-1 and PD-L1 protein extracellular domains were expressed as fusion proteins with detection tags, for PD-1, the tag was the Fc portion of Immunoglobulin (PD-1-Ig) and for PD-L1 it was the 6 histidine motif (PD-L1-His). All binding studies were performed in an HTRF assay buffer consisting of dPBS supplemented with 0.1% […] bovine serum albumin and 0.05% (v/v) Tween-20. For the h/PD-L1-His binding assay, inhibitors were pre-incubated with PD-L1-His (10 nM final) for 15 m in 4 μl of assay buffer, followed by addition of PD-1-Ig (20 nM final) in 1 μl of assay buffer and further incubation for 15 m. HTRF detection was achieved using europium crypate-labeled anti-Ig (1 nM final) and allophycocyanin (APC) labeled anti-His (20 nM final). Antibodies were diluted in HTRF detection buffer and 5 μl was dispensed on top of the binding reaction. […] Additional binding assays were established between the human proteins PD-1-Ig/PD-L2-His (20 & 5 nM, respectively) and CD80-His/PD-L1-Ig (100 & 10 nM, respectively). […]

T1 sequence (Q9NZQ7 with tags, fused parts or gaps): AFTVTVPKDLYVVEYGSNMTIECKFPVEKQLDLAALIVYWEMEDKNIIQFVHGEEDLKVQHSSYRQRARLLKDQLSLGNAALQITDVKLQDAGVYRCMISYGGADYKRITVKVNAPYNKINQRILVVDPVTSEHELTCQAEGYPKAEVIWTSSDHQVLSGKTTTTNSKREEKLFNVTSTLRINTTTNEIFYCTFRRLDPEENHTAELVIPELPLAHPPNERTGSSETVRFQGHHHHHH

| SMILES | IC50 [nM] |
| --- | --- |
| Cc1cc(OCc2cccc(-c3cccc(COc4cc(C)c(CN5CCCC[C@H]5C(=O)O)cc4C)c3C)c2C)c(C)cc1CN1CCCC[C@H]1C(=O)O [Example 5002, (2S,2′S)-1,1′-(((((2,2′-dimethyl-[1,1′-biphenyl]-3,3′-diyl)bis(methylene))bis(oxy))bis(2,5-dimethyl-4,1-phenylene))bis(methylene))bis(piperidine-2-carboxylic acid)] | 20.1 to 90 |
| Cc1c(OCCCNCCc2ccc(N)cc2)cccc1-c1cccc(OCCCN2CC[C@@H](O)C2)c1C [Example 2065, (R)-1-(3-((3′-(3-((4-aminophenethyl)amino)propoxy)-2,2′-dimethyl-[1,1′-biphenyl]-3-yl)oxy)propyl)pyrrolidin-3-ol] | 20.1 to 90 |
| CSCCC(NCc1cc(Cl)c(OCc2cccc(-c3cccc(COc4cc(OCc5cncc(C#N)c5)c(CNC(CCSC)C(=O)O)cc4Cl)c3C)c2C)cc1OCc1cncc(C#N)c1)C(=O)O (stereo not shown) [Example 40450] | 0.04 to 20 |
| Cc1c(OCCCN2CC[C@@H](O)C2)cccc1-c1cccc(OCc2cccc(N)c2)c1C [Example 3033, (R)-1-(3-((3′-((3-aminobenzyl)oxy)-2,2′-dimethyl-[1,1′-biphenyl]-3-yl)oxy)propyl)pyrrolidin-3-ol] | 1000 to 10000 |
| Cc1c(OCCCNCC(C)(O)CO)cccc1-c1cccc(OCCCNCC(C)(O)CO)c1C (mixture of isomers) [Example 2104, 3,3′-((((2,2′-dimethyl-[1,1′-biphenyl]-3,3′-diyl)bis(oxy))bis(propane-3,1-diyl))bis(azanediyl))bis(2-methylpropane-1,2-diol)] | 0.04 to 20 |
| COC(=O)[C@H](NCc1cc(Cl)c(OCc2cccc(-c3cccc(COc4cc(OCc5cncc(C#N)c5)c(CN[C@H](C(=O)O)C(=O)OC)cc4Cl)c3C)c2C)cc1OCc1cncc(C#N)c1)C(=O)O [Example 40910] | 1000 to 10000 |
| Cc1c(COc2cc(OCc3cncc(C#N)c3)c(CN[C@H](CC(=O)O)Cc3ccc(I)cc3)cc2Cl)cccc1-c1cccc(COc2cc(OCc3cncc(C#N)c3)c(CN[C@H](CC(=O)O)Cc3ccc(I)cc3)cc2Cl)c1C [Example 40530] | 90.1 to 1000 |
| Cc1c(OCCCNCCC(N)=O)cccc1-c1cccc(OCCCN2CC[C@@H](O)C2)c1C [Example 2038, (R)-3-((3-((3′-(3-(3-hydroxypyrrolidin-1-yl)propoxy)-2,2′-dimethyl-[1,1′-biphenyl]-3-yl)oxy)propyl)amino)propanamide] | 90.1 to 1000 |
| Cc1cc(OCc2cccc(-c3cccc(COc4cc(C)c(CNCCC(=O)O)cc4Cl)c3C)c2C)c(Cl)cc1CNCCC(=O)O [Example 5502, 3,3′-((((((2,2′-dimethyl-[1,1′-biphenyl]-3,3′-diyl)bis(methylene))bis(oxy))bis(5-chloro-2-methyl-4,1-phenylene))bis(methylene))bis(azanediyl))dipropionic acid] | 0.04 to 20 |
| Cc1c(OCCCN(CCO)CCO)cccc1-c1cccc(OCCCN(CCO)CCO)c1C [Example 2077, 2,2′,2″,2′″-((((2,2′-dimethyl-[1,1′-biphenyl]-3,3′-diyl)bis(oxy))bis(propane-3,1-diyl))bis(azanetriyl))tetrakis(ethan-1-ol)] | 20.1 to 90 |
| Cc1c(OCCCNCCc2cn(C)cn2)cccc1-c1cccc(OCCCN2CC[C@@H](O)C2)c1C [Example 2043, (R)-1-(3-((2,2′-dimethyl-3′-(3-((2-(1-methyl-1H-imidazol-4-yl)ethyl)amino)propoxy)-[1,1′-biphenyl]-3-yl)oxy)propyl)pyrrolidin-3-ol] | 90.1 to 1000 |
| C[C@](CO)(NCc1cc(Cl)c(OCc2cccc(-c3cccc(COc4cc(OCc5cncc(C#N)c5)c(CO)cc4Cl)c3Cl)c2Cl)cc1OCc1cncc(C#N)c1)C(=O)O [Example 50400] | 0.04 to 20 |
| Cc1c(COc2cc(OCc3cncc(C#N)c3)c(CO)cc2Cl)cccc1-c1cccc(COc2cc(OCc3cncc(C#N)c3)c(CNCC(O)C(=O)O)cc2Cl)c1C (stereo not shown) [Example 50300] | 0.04 to 20 |
| Cc1c(OCCCNC[C@H](O)CO)cccc1-c1cccc(OCCCN2CC[C@@H](O)C2)c1C [Example 2011, (S)-3-((3-((3′-(3-((R)-3-hydroxypyrrolidin-1-yl)propoxy)-2,2′-dimethyl-[1,1′-biphenyl]-3-yl)oxy)propyl)amino)propane-1,2-diol] | 20.1 to 90 |
| Cc1c(COc2cc(OCc3cncc(C#N)c3)c(C(=O)NCc3ccncn3)cc2Cl)cccc1-c1cccc(COc2cc(OCc3cncc(C#N)c3)c(C(=O)NCc3ccncn3)cc2Cl)c1C [Example 80090] | 90.1 to 1000 |
| Cc1c(COc2cc(OCc3cncc(C#N)c3)c(CN[C@H](C(=O)O)[C@@H](C)OCc3ccccc3)cc2Cl)cccc1-c1cccc(COc2cc(OCc3cncc(C#N)c3)c(CN[C@H](C(=O)O)[C@@H](C)OCc3ccccc3)cc2Cl)c1C [Example 41050] | 20.1 to 90 |
| Cc1c(OCCCNC[C@H](O)C(=O)O)cccc1-c1cccc(OCCCN2CC[C@@H](O)C2)c1C [Example 2045, (S)-2-hydroxy-3-((3-((3′-(3-((R)-3-hydroxypyrrolidin-1-yl)propoxy)-2,2′-dimethyl-[1,1′-biphenyl]-3-yl)oxy)propyl)amino)propanoic acid] | 90.1 to 1000 |
| Cc1c(COc2cc(OCc3cncc(C#N)c3)c(CN3CC(C(=O)O)C(c4ccccc4Cl)C3)cc2Cl)cccc1-c1cccc(COc2cc(OCc3cncc(C#N)c3)c(CN3CC(C(=O)O)C(c4ccccc4Cl)C3)cc2Cl)c1C (stereo not shown) [Example 40520] | 90.1 to 1000 |
| COC(=O)[C@@H](NCc1cc(Cl)c(OCc2cccc(-c3cccc(COc4cc(OCc5cncc(C#N)c5)c(CN[C@H](C(=O)OC)[C@H](C)O)cc4Cl)c3C)c2C)cc1OCc1cncc(C#N)c1)[C@H](C)O [Example 40900] | 1000 to 10000 |
| Cc1c(COc2cc(OCc3cncc(C#N)c3)c(C(=O)N3CCC(=O)CC3)cc2Cl)cccc1-c1cccc(COc2cc(OCc3cncc(C#N)c3)c(C(=O)N3CCC(=O)CC3)cc2Cl)c1C [Example 80230] | 20.1 to 90 |
| Cc1cc(OCc2cccc(-c3cccc(COc4cc(C)c(CNC(CO)CO)cc4C)c3C)c2C)c(C)cc1CNC(CO)CO [Example 5004, 2,2′-((((((2,2′-dimethyl-[1,1′-biphenyl]-3,3′-diyl)bis(methylene))bis(oxy))bis(2,5-dimethyl-4,1-phenylene))bis(methylene))bis(azanediyl))bis(propane-1,3-diol)] | 0.04 to 20 |
| Cc1c(COc2cc(OCc3cncc(C#N)c3)c(CNCCC(=O)O)cc2Cl)cccc1-c1cccc(COc2cc(OCc3cncc(C#N)c3)c(CNCCC(=O)O)cc2Cl)c1C [Example 40410] | 0.04 to 20 |
| Cc1c(COc2cc(OCc3cncc(C#N)c3)c(CO)cc2Cl)cccc1-c1cccc(COc2cc(OCc3cncc(C#N)c3)c(CN3CC[C@@H](O)C3)cc2Cl)c1C [Example 2126, (R)-5-((4-chloro-5-((3′-((2-chloro-5-((5-cyanopyridin-3-yl)methoxy)-4-((3-hydroxypyrrolidin-1-yl)methyl)phenoxy)methyl)-2,2′-dimethyl-[1,1′-biphenyl]-3-yl)methoxy)-2-(hydroxymethyl)phenoxy)methyl)nicotinonitrile] | 20.1 to 90 |
| Cc1c(OCCCN2CC[C@@H](O)C2)cccc1-c1cccc(OCCCN2CC[C@@H](O)C2)c1C [Example 3001, (3R,3′R)-1,1′-(((2,2′-dimethyl-[1,1′-biphenyl]-3,3′-diyl)bis(oxy))bis(propane-3,1-diyl))bis(pyrrolidin-3-ol)] | 0.04 to 20 |
| Cc1c(OCCCNCC(O)c2cccnc2)cccc1-c1cccc(OCCCN2CC[C@@H](O)C2)c1C (mixture of isomers) [Example 2040, (3R)-1-(3-((3′-(3-((2-hydroxy-2-(pyridin-3-yl)ethyl)amino)propoxy)-2,2′-dimethyl-[1,1′-biphenyl]-3-yl)oxy)propyl)pyrrolidin-3-ol] | 20.1 to 90 |
| Cc1c(OCCCN(C)CCN(C)C)cccc1-c1cccc(OCCCN2CC[C@@H](O)C2)c1C [Example 2032, (R)-1-(3-((3′-(3-((2-(dimethylamino)ethyl)(methyl)amino)propoxy)-2,2′-dimethyl-[1,1′-biphenyl]-3-yl)oxy)propyl)pyrrolidin-3-ol] | 20.1 to 90 |
| Cc1c(OCCCN2CC[C@@H](O)C2)cccc1-c1cccc(OCCCN2CC[C@@H](O)C2)c1C#N [Example 3025, 3,3′-bis(3-((R)-3-hydroxypyrrolidin-1-yl)propoxy)-2′-methyl-[1,1′-biphenyl]-2-carbonitrile] | 90.1 to 1000 |
| Cc1c(COc2cc(OCC3CC3)c(CNC(CCO)C(=O)O)cc2Cl)cccc1-c1cccc(COc2cc(OCC3CC3)c(CNC(CCO)C(=O)O)cc2Cl)c1C (stereo not shown) [Example 40180] | 0.04 to 20 |
| N#Cc1cncc(COc2cc(OCc3cccc(-c4cccc(COc5cc(OCc6cncc(C#N)c6)c(C(=O)NCC6(CO)CC6)cc5Cl)c4Cl)c3Cl)c(Cl)cc2C(=O)O)c1 [Example 90040] | 90.1 to 1000 |

Same assay, conditions: numeric IC50; PD-L1-His 10 nM, PD-1-Ig 20 nM; read-out: Range or IC50

| SMILES | IC50 [nM] |
| --- | --- |
| Cc1c(COc2cc(OCc3cncc(C#N)c3)c(CNC/C=C\C(=O)O)cc2Cl)cccc1-c1cccc(COc2cc(OCc3cncc(C#N)c3)c(CNC/C=C\C(=O)O)cc2Cl)c1C [Example 40730] | 22 |
| Cc1c(COc2cc(OCc3cncc(C#N)c3)c(Cl)cc2Cl)cccc1-c1cccc(COc2cc(OCc3cncc(C#N)c3)c(CN[C@@H](C(=O)O)[C@H](C)O)cc2Cl)c1C [Example 70040] | 1050 |
